Results taken from the kinase profiling compilation of Christmann-Franck et al. (2016).

Tests used:
Experiment in all cases: KINOMEscan competition binding
Settings in all cases: compound 10.0 µM
NLK (human) = NLK (human) (UniProt Q9UBE8)
EPHA8 (human) = EPHA8 (human) (UniProt P29322)
TBK1 (human) = TBK1 (human) (UniProt Q9UHD2)
CSNK2A1 (human) = CSNK2A1 (human) (UniProt P68400)
SRPK2 (human) = SRPK2 (human) (UniProt P78362)
PIK3CG (human) = PIK3CG (human) (UniProt P48736)
[1] = test system: FLT3 (human), P36888 [N841I]
CRK2 (P.falciparum) = CRK2 (P.falciparum) (UniProt P61075)
[2] = test system: KIT (human), P10721 [V559D/V654A]
DYRK2 (human) = DYRK2 (human) (UniProt Q92630)
TNNI3K (human) = TNNI3K (human) (UniProt Q59H18)
PRKD1 (human) = PRKD1 (human) (UniProt Q15139)
STK10 (human) = STK10 (human) (UniProt O94804)
CDKL2 (human) = CDKL2 (human) (UniProt Q92772)
RPS6KA3 KD1 (human) = RPS6KA3 KD1 (human) (UniProt P51812)
MST1R (human) = MST1R (human) (UniProt Q04912)
NTRK1 (human) = NTRK1 (human) (UniProt P04629)
FGR (human) = FGR (human) (UniProt P09769)
CLK4 (human) = CLK4 (human) (UniProt Q9HAZ1)
FGFR2 (human) = FGFR2 (human) (UniProt P21802)
LCK (human) = LCK (human) (UniProt P06239)
ANKK1 (human) = ANKK1 (human) (UniProt Q8NFD2)
TSSK1B (human) = TSSK1B (human) (UniProt Q9BXA7)
MAP2K3 (human) = MAP2K3 (human) (UniProt P46734)
LTK (human) = LTK (human) (UniProt P29376)
CSF1R (human) = CSF1R (human) (UniProt P07333)
[3] = test system: EGFR (human), P00533 [P753S; 747-752 del]
EPHA5 (human) = EPHA5 (human) (UniProt P54756)
PI4KB (human) = PI4KB (human) (UniProt Q9UBF8)
RAF1 (human) = RAF1 (human) (UniProt P04049)
NEK6 (human) = NEK6 (human) (UniProt Q9HC98)
GRK7 (human) = GRK7 (human) (UniProt Q8WTQ7)
CDK7 (human) = CDK7 (human) (UniProt P50613)
MARK4 (human) = MARK4 (human) (UniProt Q96L34)
[4] = test system: ABL1 (human), P00519 [Y253F]
[5] = test system: RET (human), P07949 [V804L]
CIT (human) = CIT (human) (UniProt O14578)
[6] = test system: MET (human), P08581 [M1250T]
[7] = test system: FLT3 (human), P36888 [D835Y]
PHKG1 (human) = PHKG1 (human) (UniProt Q16816)
BMX (human) = BMX (human) (UniProt P51813)

Chain of CSF1R (human) (P07333 whole entry, looked up): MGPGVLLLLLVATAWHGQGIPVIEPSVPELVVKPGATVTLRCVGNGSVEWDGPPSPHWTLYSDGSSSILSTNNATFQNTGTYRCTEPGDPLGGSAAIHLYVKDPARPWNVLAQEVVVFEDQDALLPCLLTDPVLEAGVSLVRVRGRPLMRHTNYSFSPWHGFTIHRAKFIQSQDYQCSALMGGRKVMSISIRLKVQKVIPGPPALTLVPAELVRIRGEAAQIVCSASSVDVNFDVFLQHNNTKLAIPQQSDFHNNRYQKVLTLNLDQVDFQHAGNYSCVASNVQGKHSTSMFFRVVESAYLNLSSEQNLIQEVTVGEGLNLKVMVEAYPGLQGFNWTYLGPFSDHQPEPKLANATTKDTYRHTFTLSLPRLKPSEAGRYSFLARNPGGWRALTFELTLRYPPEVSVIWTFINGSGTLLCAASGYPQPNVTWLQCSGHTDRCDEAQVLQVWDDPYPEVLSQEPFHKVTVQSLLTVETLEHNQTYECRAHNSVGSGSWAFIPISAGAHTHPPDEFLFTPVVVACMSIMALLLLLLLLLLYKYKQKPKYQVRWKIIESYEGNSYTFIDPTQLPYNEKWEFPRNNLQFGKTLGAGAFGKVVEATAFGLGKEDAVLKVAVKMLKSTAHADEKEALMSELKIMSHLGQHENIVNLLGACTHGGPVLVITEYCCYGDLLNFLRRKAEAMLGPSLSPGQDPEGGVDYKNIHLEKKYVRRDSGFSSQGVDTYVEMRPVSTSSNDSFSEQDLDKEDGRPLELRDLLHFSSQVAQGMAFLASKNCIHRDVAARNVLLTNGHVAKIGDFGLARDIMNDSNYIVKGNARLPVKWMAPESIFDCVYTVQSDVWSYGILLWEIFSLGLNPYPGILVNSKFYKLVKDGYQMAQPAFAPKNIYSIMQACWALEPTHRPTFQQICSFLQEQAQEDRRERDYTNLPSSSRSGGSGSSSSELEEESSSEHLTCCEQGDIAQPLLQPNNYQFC
Chain of RAF1 (human) (P04049 whole entry, looked up): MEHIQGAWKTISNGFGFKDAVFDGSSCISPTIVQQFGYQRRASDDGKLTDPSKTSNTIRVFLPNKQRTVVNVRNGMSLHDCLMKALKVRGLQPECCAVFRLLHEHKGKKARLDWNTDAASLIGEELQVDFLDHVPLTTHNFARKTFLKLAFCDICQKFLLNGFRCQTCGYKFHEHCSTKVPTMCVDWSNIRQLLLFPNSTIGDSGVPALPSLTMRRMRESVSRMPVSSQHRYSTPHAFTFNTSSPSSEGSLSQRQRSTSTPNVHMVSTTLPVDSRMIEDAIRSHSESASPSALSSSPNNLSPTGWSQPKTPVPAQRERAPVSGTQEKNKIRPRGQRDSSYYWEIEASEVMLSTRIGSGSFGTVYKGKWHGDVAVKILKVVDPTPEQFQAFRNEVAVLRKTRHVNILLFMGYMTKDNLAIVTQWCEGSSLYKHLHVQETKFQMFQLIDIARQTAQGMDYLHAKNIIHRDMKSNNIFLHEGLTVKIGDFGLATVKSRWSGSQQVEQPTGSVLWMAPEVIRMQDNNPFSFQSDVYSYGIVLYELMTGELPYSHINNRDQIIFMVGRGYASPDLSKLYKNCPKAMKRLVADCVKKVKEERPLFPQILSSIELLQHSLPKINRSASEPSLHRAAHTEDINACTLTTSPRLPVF
Chain of CDK7 (human) (P50613 whole entry, looked up): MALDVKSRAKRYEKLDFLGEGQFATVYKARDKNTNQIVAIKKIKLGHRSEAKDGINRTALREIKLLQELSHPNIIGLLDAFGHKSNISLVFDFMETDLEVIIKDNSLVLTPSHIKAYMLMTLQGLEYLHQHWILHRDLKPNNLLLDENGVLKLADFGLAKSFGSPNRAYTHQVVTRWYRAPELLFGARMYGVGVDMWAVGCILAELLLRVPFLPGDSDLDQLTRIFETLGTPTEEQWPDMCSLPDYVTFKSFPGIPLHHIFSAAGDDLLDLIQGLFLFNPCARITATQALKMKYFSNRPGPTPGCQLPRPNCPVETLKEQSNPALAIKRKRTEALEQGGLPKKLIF
Chain of STK10 (human) (O94804 whole entry, looked up): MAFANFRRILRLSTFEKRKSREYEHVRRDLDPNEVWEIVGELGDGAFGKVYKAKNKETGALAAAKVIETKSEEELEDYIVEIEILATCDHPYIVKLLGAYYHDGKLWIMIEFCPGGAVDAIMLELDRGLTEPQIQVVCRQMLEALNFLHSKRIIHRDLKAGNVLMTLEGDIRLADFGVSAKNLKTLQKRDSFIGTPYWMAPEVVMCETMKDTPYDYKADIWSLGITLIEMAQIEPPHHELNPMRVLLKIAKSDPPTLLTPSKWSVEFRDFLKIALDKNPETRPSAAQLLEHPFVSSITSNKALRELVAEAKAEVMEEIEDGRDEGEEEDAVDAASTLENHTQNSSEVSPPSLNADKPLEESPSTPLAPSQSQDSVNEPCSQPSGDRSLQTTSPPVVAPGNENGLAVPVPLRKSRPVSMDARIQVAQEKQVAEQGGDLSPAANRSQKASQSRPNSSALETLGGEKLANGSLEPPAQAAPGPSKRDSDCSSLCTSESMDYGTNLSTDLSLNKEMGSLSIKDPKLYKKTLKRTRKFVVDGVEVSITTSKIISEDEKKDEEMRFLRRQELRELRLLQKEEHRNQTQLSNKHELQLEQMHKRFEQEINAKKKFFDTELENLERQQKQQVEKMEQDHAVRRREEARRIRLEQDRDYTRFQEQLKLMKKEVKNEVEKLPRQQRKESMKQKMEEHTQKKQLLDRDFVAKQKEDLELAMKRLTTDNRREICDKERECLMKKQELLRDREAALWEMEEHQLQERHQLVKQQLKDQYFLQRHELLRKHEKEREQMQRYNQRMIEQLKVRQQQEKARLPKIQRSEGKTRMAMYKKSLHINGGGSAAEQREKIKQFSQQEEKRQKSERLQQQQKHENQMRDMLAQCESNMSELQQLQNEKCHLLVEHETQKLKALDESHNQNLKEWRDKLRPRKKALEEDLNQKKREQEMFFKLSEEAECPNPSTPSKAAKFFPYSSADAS
Chain of CIT (human) (O14578 whole entry, looked up): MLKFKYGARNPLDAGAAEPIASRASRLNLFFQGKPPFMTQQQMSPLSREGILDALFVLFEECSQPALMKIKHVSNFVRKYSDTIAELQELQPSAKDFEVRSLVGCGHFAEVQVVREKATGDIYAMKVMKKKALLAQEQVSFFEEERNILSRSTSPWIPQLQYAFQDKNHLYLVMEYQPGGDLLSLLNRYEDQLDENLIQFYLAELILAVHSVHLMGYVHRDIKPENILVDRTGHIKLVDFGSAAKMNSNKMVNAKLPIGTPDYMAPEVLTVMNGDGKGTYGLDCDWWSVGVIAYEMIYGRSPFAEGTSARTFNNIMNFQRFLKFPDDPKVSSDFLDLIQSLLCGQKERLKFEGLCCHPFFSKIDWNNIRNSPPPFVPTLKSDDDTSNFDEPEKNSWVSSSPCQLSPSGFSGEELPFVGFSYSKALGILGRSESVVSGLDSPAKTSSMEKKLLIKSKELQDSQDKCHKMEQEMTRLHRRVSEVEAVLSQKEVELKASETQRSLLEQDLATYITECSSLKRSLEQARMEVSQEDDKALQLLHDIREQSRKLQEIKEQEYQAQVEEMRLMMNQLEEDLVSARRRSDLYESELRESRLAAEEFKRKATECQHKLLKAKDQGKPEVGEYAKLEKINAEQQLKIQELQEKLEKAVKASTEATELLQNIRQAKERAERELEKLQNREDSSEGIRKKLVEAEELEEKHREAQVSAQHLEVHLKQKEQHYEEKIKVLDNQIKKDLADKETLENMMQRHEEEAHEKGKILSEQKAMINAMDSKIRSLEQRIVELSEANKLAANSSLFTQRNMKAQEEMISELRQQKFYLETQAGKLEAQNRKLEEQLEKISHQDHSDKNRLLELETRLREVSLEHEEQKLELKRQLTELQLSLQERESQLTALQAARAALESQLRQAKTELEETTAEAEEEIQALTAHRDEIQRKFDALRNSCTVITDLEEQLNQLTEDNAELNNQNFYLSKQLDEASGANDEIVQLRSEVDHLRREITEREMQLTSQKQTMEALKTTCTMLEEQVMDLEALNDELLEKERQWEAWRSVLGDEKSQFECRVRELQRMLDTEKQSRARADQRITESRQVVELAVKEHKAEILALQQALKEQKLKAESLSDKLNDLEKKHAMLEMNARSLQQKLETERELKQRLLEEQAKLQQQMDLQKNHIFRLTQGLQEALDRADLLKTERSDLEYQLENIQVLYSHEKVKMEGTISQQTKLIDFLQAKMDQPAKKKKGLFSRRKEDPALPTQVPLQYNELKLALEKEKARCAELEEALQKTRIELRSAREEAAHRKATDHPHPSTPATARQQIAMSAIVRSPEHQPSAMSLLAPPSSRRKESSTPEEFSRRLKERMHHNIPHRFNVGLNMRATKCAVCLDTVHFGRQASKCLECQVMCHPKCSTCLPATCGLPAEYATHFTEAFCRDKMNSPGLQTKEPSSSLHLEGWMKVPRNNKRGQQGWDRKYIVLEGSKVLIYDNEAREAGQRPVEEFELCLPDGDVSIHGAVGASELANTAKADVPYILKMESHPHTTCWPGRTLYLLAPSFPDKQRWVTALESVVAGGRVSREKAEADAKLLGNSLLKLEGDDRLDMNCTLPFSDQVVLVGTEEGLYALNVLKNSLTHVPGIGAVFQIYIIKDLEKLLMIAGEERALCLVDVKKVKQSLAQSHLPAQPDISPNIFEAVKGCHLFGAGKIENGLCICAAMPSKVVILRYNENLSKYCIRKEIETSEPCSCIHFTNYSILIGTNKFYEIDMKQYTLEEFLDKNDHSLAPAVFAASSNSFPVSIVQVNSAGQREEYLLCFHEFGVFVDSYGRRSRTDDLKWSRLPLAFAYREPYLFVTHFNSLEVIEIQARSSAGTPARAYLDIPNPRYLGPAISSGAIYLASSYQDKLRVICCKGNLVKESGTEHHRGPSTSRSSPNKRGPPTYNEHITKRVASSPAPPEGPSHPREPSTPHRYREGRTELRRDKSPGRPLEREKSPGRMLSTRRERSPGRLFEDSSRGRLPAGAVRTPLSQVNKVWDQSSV

`COc1cc(C(=O)N2CCC(N3CCN(C)CC3)CC2)ccc1Nc1ncc2c(n1)N(C)c1ccccc1C(=O)N2C` was tested, and the kinase still bound, per cent of control (NLK (human)) was 50%, the kinase still bound, per cent of control (EPHA8 (human)) was 80% and the kinase still bound, per cent of control (TBK1 (human)) was 97%. For the same molecule, the kinase still bound, per cent of control (CSNK2A1 (human)) was 100%, the kinase still bound, per cent of control (SRPK2 (human)) was 100% and the kinase still bound, per cent of control (PIK3CG (human)) was 15%. For the same molecule, the kinase still bound, per cent of control [1] was 73%, the kinase still bound, per cent of control (CRK2 (P.falciparum)) was 100% and the kinase still bound, per cent of control [2] was 100%. It also gave a kinase still bound, per cent of control (DYRK2 (human)) of 76%, a kinase still bound, per cent of control (TNNI3K (human)) of 100% and a kinase still bound, per cent of control (PRKD1 (human)) of 28%. The kinase still bound, per cent of control (STK10 (human)) was 100%, the residual activity (CDKL2 (human)) was 100% and the kinase still bound, per cent of control (RPS6KA3 KD1 (human)) was 77%. The kinase still bound, per cent of control (MST1R (human)) was 98%, the kinase still bound, per cent of control (NTRK1 (human)) was 69% and the kinase still bound, per cent of control (FGR (human)) was 84%. The kinase still bound, per cent of control (CLK4 (human)) was 54%, the kinase still bound, per cent of control (FGFR2 (human)) was 95% and the kinase still bound, per cent of control (LCK (human)) was 100%. For the same molecule, the kinase still bound, per cent of control (ANKK1 (human)) was 100%, the kinase still bound, per cent of control (TSSK1B (human)) was 60% and the kinase still bound, per cent of control (MAP2K3 (human)) was 75%. It also gave a kinase still bound, per cent of control (LTK (human)) of 32%, a kinase still bound, per cent of control (CSF1R (human)) of 98% and a kinase still bound, per cent of control [3] of 84%. It also gave a kinase still bound, per cent of control (EPHA5 (human)) of 95%, a kinase still bound, per cent of control (PI4KB (human)) of 95% and a kinase still bound, per cent of control (RAF1 (human)) of 100%. For the same molecule, the kinase still bound, per cent of control (NEK6 (human)) was 76%, the kinase still bound, per cent of control (GRK7 (human)) was 100% and the residual activity (CDK7 (human)) was 86%. It also gave a kinase still bound, per cent of control (MARK4 (human)) of 78%, a kinase still bound, per cent of control [4] of 89% and a kinase still bound, per cent of control [5] of 89%. The kinase still bound, per cent of control (CIT (human)) was 99%, the kinase still bound, per cent of control [6] was 96% and the kinase still bound, per cent of control [7] was 100%. For the same molecule, the kinase still bound, per cent of control (PHKG1 (human)) was 54% and the kinase still bound, per cent of control (BMX (human)) was 87%.
